This note sets out measurements from PubChem BioAssay (NCI).

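48-hour exposure; five concentrations; linearly interpolated endpoints. Abbreviation: GI50, concentration required for 50% inhibition of growth. At the TGI there is no net growth.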

Some test systems named below: 786-0 renal; OVCAR-5 ovarian; HT29 colon; OVCAR-8 ovarian; NCI-H226 lung; MOLT-4 leukemia; SNB-75 CNS; OVCAR-4 ovarian; TK-10 renal; HL-60(TB) leukemia.
What all share (assay): NCI anticancer screen, dose series, 48 h

In the case of `O=C1c2ccccc2-c2c1c1ccccc1c(=O)n2CCNCCCNCCn1c2c(c3ccccc3c1=O)C(=O)c1ccccc1-2`, the GI50 was 0.0539 µM with 786-0 renal; 0.42 µM in the assay on OVCAR-5 ovarian; 0.051 µM in the assay with HT29 colon; 0.0101 µM in the assay on OVCAR-8 ovarian; 0.64 µM with NCI-H226 lung; less than 0.005 µM with MOLT-4 leukemia. Moreover, the TGI is 0.326 µM in the assay with 786-0 renal; 1.1 µM with OVCAR-5 ovarian; 0.361 µM with OVCAR-8 ovarian; 1.66 µM in the assay on NCI-H226 lung; greater than 50 µM in the assay with MOLT-4 leukemia.
Regarding `O=c1c2ccccc2c2c3c1cccc3c1cccc3c(=O)c4ccccc4c2c31`, the TGI with 786-0 renal, in the assay on SNB-75 CNS, in the assay with OVCAR-5 ovarian, in the assay with HT29 colon, with OVCAR-8 ovarian and with NCI-H226 lung was greater than 100 µM throughout. Also, the TGI in the assay with MOLT-4 leukemia, in the assay on OVCAR-4 ovarian and in the assay on TK-10 renal was greater than 100 µM throughout.
Take `Cc1ccc(C(=O)CC(Sc2cccc(Cl)c2Cl)c2ccc(Cl)cc2)cc1C` (stereo unspecified): the GI50 in the assay on 786-0 renal was 17.8 µM; in the assay with HL-60(TB) leukemia, 30.6 µM; in the assay with OVCAR-5 ovarian, 22.4 µM; in the assay on OVCAR-8 ovarian, 24.6 µM; with NCI-H226 lung, 20.5 µM; with MOLT-4 leukemia, 33 µM. Further, the results for the GI50 in the assay with OVCAR-4 ovarian and in the assay with TK-10 renal were 34.5 µM and 17.2 µM, respectively. The TGI in the assay on 786-0 renal is 36.2 µM; in the assay with HL-60(TB) leukemia, greater than 100 µM; with OVCAR-5 ovarian it was 59.8 µM; with OVCAR-8 ovarian, 74 µM; in the assay with NCI-H226 lung it was 37.4 µM; with MOLT-4 leukemia, greater than 100 µM. For the same compound, the TGI with OVCAR-4 ovarian was greater than 100 µM; in the assay on TK-10 renal, 35 µM.
`Cc1ccc2/c(=C/c3ccc(N(C)C)cc3)c3cc(-c4ccccc4)[n+](C)n3c2c1`: the GI50 was 0.305 µM in the assay with 786-0 renal; 0.144 µM in the assay with SNB-75 CNS; 0.456 µM in the assay on OVCAR-5 ovarian; 0.0411 µM with HT29 colon; 0.0383 µM in the assay on MOLT-4 leukemia; 0.816 µM with OVCAR-4 ovarian. Also, the GI50 in the assay on TK-10 renal is 0.266 µM. Also, the TGI was 2.92 µM in the assay with 786-0 renal; 2.02 µM with SNB-75 CNS; 4.74 µM in the assay with OVCAR-5 ovarian; greater than 100 µM in the assay on HT29 colon; greater than 100 µM in the assay with MOLT-4 leukemia; 20.2 µM with OVCAR-4 ovarian. Also, in the assay with TK-10 renal, the TGI came out at 2.36 µM.
As to `Nc1ccc(SC23CC4CC(CC(C4)C2)C3)cc1`, the TGI in the assay on 786-0 renal, in the assay with HL-60(TB) leukemia, with OVCAR-5 ovarian, with HT29 colon, in the assay on OVCAR-8 ovarian and in the assay with TK-10 renal was greater than 100 µM throughout.
For `COc1ccc(-c2cc(-c3cc(Cl)ccc3Cl)nc3nc(=S)[nH]c(N)c23)cc1`, the GI50 with 786-0 renal was 20.1 µM; in the assay with SNB-75 CNS, 82.7 µM; with OVCAR-5 ovarian, 20.1 µM; with HT29 colon, 37.8 µM; with MOLT-4 leukemia it was 6.36 µM; in the assay on OVCAR-4 ovarian, greater than 100 µM. Besides, the GI50 in the assay on TK-10 renal is 7.35 µM. The TGI was 37.4 µM in the assay with 786-0 renal; greater than 100 µM in the assay with SNB-75 CNS; 51.4 µM with OVCAR-5 ovarian; greater than 100 µM in the assay on HT29 colon; greater than 100 µM in the assay on MOLT-4 leukemia; greater than 100 µM with OVCAR-4 ovarian. The same compound yielded a TGI with TK-10 renal of 38.5 µM.
Regarding `NC(N)=N/N=C/c1c(-c2ccccn2)nc2sc(Cl)cn12`, the GI50 is 8.45 µM in the assay on 786-0 renal; 11 µM in the assay on HL-60(TB) leukemia; 6.3 µM in the assay with OVCAR-5 ovarian; 6.32 µM with OVCAR-8 ovarian; 8.13 µM with TK-10 renal. The TGI in the assay with 786-0 renal amounted to 16.4 µM; with HL-60(TB) leukemia, 25.8 µM; with OVCAR-5 ovarian, 12.6 µM; in the assay on OVCAR-8 ovarian it was 13.5 µM; in the assay with TK-10 renal, 15.1 µM.
For `O=C(Nc1ccc(S(=O)(=O)N[C@@H](C(=O)O)c2ccccc2)cc1)c1ccc(F)cc1`, the TGI with 786-0 renal, in the assay with SNB-75 CNS, with OVCAR-5 ovarian, in the assay on HT29 colon, with OVCAR-8 ovarian and with MOLT-4 leukemia was greater than 100 µM each time. Moreover, the TGI in the assay with OVCAR-4 ovarian and in the assay with TK-10 renal was greater than 100 µM each time.
Consider `COc1ccc2c(c1)[C@@]13CCN4CC5=CCO[C@H]6CC(=O)N2[C@H]1[C@H]6[C@H]5C[C@H]43`, for which the TGI was greater than 100 µM with 786-0 renal; greater than 100 µM in the assay on HL-60(TB) leukemia; greater than 100 µM with OVCAR-5 ovarian; greater than 100 µM in the assay with HT29 colon; greater than 100 µM with OVCAR-8 ovarian; 30.9 µM in the assay with NCI-H226 lung. Also, the TGI in the assay with MOLT-4 leukemia, with OVCAR-4 ovarian and in the assay on TK-10 renal was greater than 100 µM in each case.
Consider `c1cc[c]([Sn]([S]c2cccc3cccnc23)([c]2ccccc2)[c]2ccccc2)cc1`, for which the GI50 in the assay on 786-0 renal was 0.0234 µM; in the assay with HT29 colon, 0.0223 µM; with OVCAR-8 ovarian it was 0.0387 µM; in the assay on OVCAR-4 ovarian, 0.0171 µM; with TK-10 renal it was 0.0446 µM. For the same compound, the TGI in the assay with 786-0 renal amounted to 0.0758 µM; in the assay on SNB-75 CNS, 0.0473 µM; in the assay on HT29 colon, 0.0908 µM; with OVCAR-8 ovarian, 0.255 µM; in the assay on OVCAR-4 ovarian it was 0.0644 µM; in the assay on TK-10 renal, 0.181 µM.
On to `Clc1ccc(CNc2nc3ccccc3nc2-c2cccs2)c(Cl)c1`, for which the TGI in the assay on 786-0 renal, with HL-60(TB) leukemia, with OVCAR-5 ovarian, with HT29 colon, in the assay with OVCAR-8 ovarian and in the assay with NCI-H226 lung was greater than 100 µM each time. The TGI in the assay on MOLT-4 leukemia and with TK-10 renal was greater than 100 µM each time.
In the case of `CCOc1cccc2nc3cccc(C(=O)NCCN(C)C)c3nc12`, the TGI was greater than 28.7 µM with 786-0 renal; 11.6 µM with SNB-75 CNS; 5.28 µM in the assay on OVCAR-5 ovarian; 7.14 µM in the assay on HT29 colon; greater than 20.4 µM in the assay on OVCAR-8 ovarian; 2.08 µM in the assay with NCI-H226 lung. Besides, the values for the TGI in the assay with MOLT-4 leukemia, in the assay on OVCAR-4 ovarian and with TK-10 renal were 0.746 µM, 8.58 µM and 7.9 µM, respectively.
On to `COc1ccc(C2C(N)=NCC2c2ccccn2)cc1` (stereo unspecified), for which the TGI in the assay with 786-0 renal, with SNB-75 CNS, in the assay with OVCAR-5 ovarian, in the assay with HT29 colon, with OVCAR-8 ovarian and in the assay on NCI-H226 lung was greater than 100 µM throughout. Also, the TGI in the assay with MOLT-4 leukemia, with OVCAR-4 ovarian and in the assay on TK-10 renal was greater than 100 µM throughout.
With `COC(=O)NC/C=C\c1nc(CC/C=C\C(=O)OC2CC3CC(=O)O[C@@H](/C=C/CC(C)C)C[C@@H]4CCC(C)C(C[C@@H](OC)CC(C2)O3)O4)co1` (stereo partly specified), the GI50 is less than 0.01 µM in the assay on 786-0 renal; greater than 100 µM in the assay with SNB-75 CNS; less than 0.01 µM in the assay with OVCAR-5 ovarian; 7.63 µM with HT29 colon; 53 µM with OVCAR-8 ovarian; 24.4 µM in the assay with NCI-H226 lung. In addition, the TGI with 786-0 renal was 39.9 µM; with SNB-75 CNS, greater than 100 µM; with OVCAR-5 ovarian it was greater than 100 µM; in the assay with HT29 colon, greater than 100 µM; in the assay on OVCAR-8 ovarian, greater than 100 µM; with NCI-H226 lung it was greater than 100 µM.
Regarding `O=C(Nc1cc(-c2ccccc2)[nH]n1)c1ccc(Cl)cc1`, the GI50 in the assay on 786-0 renal was 72.4 µM; in the assay on SNB-75 CNS, 17.7 µM; in the assay with OVCAR-5 ovarian, greater than 100 µM; with HT29 colon, 6.67 µM; in the assay with OVCAR-8 ovarian it was 24.2 µM; in the assay on NCI-H226 lung it was 56.7 µM. Moreover, the results for the GI50 with OVCAR-4 ovarian and with TK-10 renal were greater than 100 µM and 9.22 µM, respectively. The TGI in the assay on 786-0 renal is greater than 100 µM; in the assay with SNB-75 CNS it was 90.3 µM; in the assay with OVCAR-5 ovarian, greater than 100 µM; in the assay with HT29 colon, greater than 100 µM; in the assay with OVCAR-8 ovarian, greater than 100 µM; in the assay on NCI-H226 lung, greater than 100 µM. Besides, the TGI in the assay with OVCAR-4 ovarian and in the assay with TK-10 renal was greater than 100 µM each time.
Turning to `COC(=O)c1c(O)ccc2[nH]c(C)c(C#N)c12`, the GI50 is 31.6 µM with 786-0 renal; 87.9 µM in the assay on SNB-75 CNS; greater than 100 µM in the assay with OVCAR-5 ovarian; 60.3 µM in the assay on HT29 colon; 43.2 µM in the assay on OVCAR-8 ovarian; 28.5 µM with NCI-H226 lung. Further, the GI50 with MOLT-4 leukemia was 26.7 µM; with OVCAR-4 ovarian, greater than 100 µM; with TK-10 renal, 8.8 µM. Besides, the TGI was greater than 100 µM in the assay on 786-0 renal; greater than 100 µM in the assay on SNB-75 CNS; greater than 100 µM in the assay with OVCAR-5 ovarian; greater than 100 µM in the assay on HT29 colon; greater than 100 µM in the assay with OVCAR-8 ovarian; 70.6 µM in the assay on NCI-H226 lung. Also, the TGI is greater than 100 µM in the assay with MOLT-4 leukemia, greater than 100 µM in the assay with OVCAR-4 ovarian and 49.2 µM in the assay with TK-10 renal.
As to `COC(=O)C(Cc1ccccc1)N/C=C\C(=O)c1ccc(Cl)cc1` (stereo unspecified), the GI50 was 23.6 µM with 786-0 renal; greater than 100 µM with SNB-75 CNS; 24.9 µM with OVCAR-5 ovarian; 35.1 µM in the assay with HT29 colon; 35.3 µM in the assay on OVCAR-8 ovarian; 26 µM in the assay with NCI-H226 lung. Moreover, the values for the GI50 in the assay on MOLT-4 leukemia and in the assay on OVCAR-4 ovarian were 35.2 µM and 50.4 µM, respectively. For the same compound, the TGI was 61.9 µM with 786-0 renal; greater than 100 µM with SNB-75 CNS; 74.4 µM in the assay with OVCAR-5 ovarian; greater than 100 µM in the assay with HT29 colon; 88.9 µM in the assay on OVCAR-8 ovarian; 77.3 µM in the assay with NCI-H226 lung. In addition, the TGI with MOLT-4 leukemia and in the assay on OVCAR-4 ovarian was greater than 100 µM each time.
